Values after ≈ are worked out from the molar mass of the structure shown. Read-outs that look alike come from different tables or passages of the source.
Legend:
Mycobacterium bovis BCG [1] = assay: microbe, parasite or virus in culture; assay type: cell-based; conditions: for MIC: Mycobacterium tuberculosis variant bovis BCG, BCG, 144 h
M. tuberculosis H37Rv = assay: In vitro tests on Mycobacterium tuberculosis (MIC in 7H11 agar medium)
M. avium 101 = assay: In vitro tests on Mycobacterium avium (MIC in 7H11 agar medium); assay type: cell-based; conditions: for MIC: Mycobacterium avium, 101, read-out: MIC on Mycobacterium avium
Source text: All tests are repeated three times.

Mycobacterium bovis BCG [2] = assay type: in vivo, C57B1/6 female mice; conditions: BCG-infected mice, 20 mg/kg/day intraperitoneally, 5 days
[3] = system: mc^2155 strain of M. smegmatis; assay: In vitro assays on Mycobacterium smegmatis (MIC, resazurin coloration microdilution method); assay type: cell-based
Description: All molecules to be tested are prepared in dimethylsulfoxide (DMSO) at a concentration of 50 mg/ml and frozen until use.
20 μl of each dilution for each molecule are prepared in 100 μl of the Dubos culture medium (Difco, USA), and then distributed into 96 well plates, at a concentration between 100-0.75 μg/ml.
Control wells containing DMSO alone and ethambutol (Etibi®, Myambutol®) or ofloxacine (synthesis antibiotic belonging to the fluoroquinolone family) are included at a concentration between […].
The plates are covered, sealed and incubated at 37° C. during 48 hours.
Minimal Inhibitory Concentrations (MIC) are determined using the resazurin coloration microdilution method. The powdery resazurin salt (Sigma) is prepared at a concentration of 0.01% (weight/vol) in distilled water, and the solution is then sterilized by 0.22 μm membrane filtration, and kept at 4° C. during one week.
Into the plates as incubated during 48 hours, 30 μl of a resazurin solution are added in each well. The plates are then incubated at 37° C. during 24 hours. The colour variation from blue to pink is indicative of a decrease in resazurin which corresponds to the development of the bacterial colony. The MIC is determined as being the lowest concentration to prevent a colour change. The optical density of each well is measured at 530-630 nm using a micro-plate reader, The MIC is determined by drawing the dose-optical density response curve.

M. smegmatis = conditions: cited from earlier work
[4] = read-out: Minimal Inhibitory Concentration MIC (μg/mL)
[5] = read-out: Minimal Inhibitory Concentration MIC (μmol/L)
[6] = Mycobacterium bovis BCG, 6 days at 37° C., 7H9 medium

Compound	MIC (Mycobacterium bovis BCG [1]; [4])	MIC (Mycobacterium bovis BCG [1]; [5])	Activity against Mycobacterium bovis BCG in vitro (in words) (Mycobacterium bovis BCG [1])	further results
Nc1cc(=O)n2c3ccccc3c3ccnc1c32	10 µg/mL	42.5 µmol/L		
COc1ccc2c(c1)c1ccnc3ccc(=O)n2c31 [10-methoxy-canthin-6-one]	7.5 µg/mL	30 µmol/L		
O=c1c2ccccc2c2nccc3c4ccccc4n1c32 [Benzo[e]canthin-6-one]	2.5 to 5 µg/mL	9.2 to 18.4 µmol/L	most active	
O=c1ccc2nccc3c4ccccc4n1c23 [Canthin-6-one]	7.5 µg/mL	34.1 µmol/L	most active	Efficiency against Mycobacterium tuberculosis (in words) (M. tuberculosis H37Rv): efficient; Activity against Mycobacterium bovis BCG in vitro (in words) (Mycobacterium bovis BCG [1]; listed as Canthin-5-one): surprising efficiency; Efficiency against Mycobacterium avium (in words) (M. avium 101): efficient; In vivo antituberculous efficiency (number of bacteria in spleen, liver and lungs; in words) (Mycobacterium bovis BCG [2]): efficient; Efficiency against Mycobacterium smegmatis (in words) [3]: efficient
O=c1ccc2c3c(cc[n+]2CCBr)c2ccccc2n13.[Br-] [N-bromoéthyl-canthin-6-one bromide]	1 to 5 µg/mL	3 to 15.3 µmol/L	most active	
O=c1c2ccccc2c2c3c(cc[n+]2[O-])c2ccccc2n13 [N-oxide-benzo[e]canthin-6-one]	10 µg/mL	34.8 µmol/L		
O=c1ccc2c3c(cc[n+]2[O-])c2ccccc2n13 [N-oxide-canthin-6-one]	2.5 to 5 µg/mL	10.6 to 21.2 µmol/L	most active	
O=c1c2nccnc2c2nccc3c4ccccc4n1c32 [Pyrazine[e]canthin-6-one]	10 µg/mL	36.8 µmol/L		
NNC(=O)c1ccncc1 [isoniazide, reference compound]	0.1 µg/mL	0.73 µmol/L		Susceptibility of M. smegmatis (M. smegmatis; isoniazide 10 μg/mL): resistant; Minimal Inhibitory Concentration MIC (μg/mL) (Mycobacterium bovis BCG [1]; [6]): 0.1 µg/mL; MIC (M. avium 101): 0.1 µg/mL (≈ 0.729 µM)
CC1COc2c(N3CCN(C)CC3)c(F)cc3c(=O)c(C(=O)O)cn1c23 (stereo not shown) [ofloxacin]				MIC on Mycobacterium tuberculosis (M. tuberculosis H37Rv; H37Rv, 7H11 agar, 21-30 days at 37° C.): 1 µg/mL (≈ 2.77 µM); MIC (M. avium 101): 6.2 µg/mL (≈ 17.2 µM); MIC ([3]; Mycolicibacterium smegmatis, mc^2155 strain, Dubos medium, resazurin, read-out: MIC (CMI) on Mycobacterium smegmatis): 1 µg/mL (≈ 2.77 µM)
ethambutol [reference compound]				Susceptibility of M. smegmatis (M. smegmatis; ethambutol 5 μg/mL): reacts; Minimal Inhibitory Concentration MIC (μg/mL) (Mycobacterium bovis BCG [1]; [6]): 5 µg/mL; Minimal Inhibitory Concentration MIC (μmol/L) (Mycobacterium bovis BCG [1]; [6]): 24.5 µmol/L; MIC (CMI) on Mycobacterium smegmatis ([3]; mc^2155 strain, Dubos medium, resazurin): 0.5 µg/mL
